Earlier results as cited in patent US4944949A, “Pharmaceutical delivery systems” (priority 1986, dated 1990).
Where two headings read alike, the source gives them in different places.

Columns and labels:
[1] = for most frequent adverse effects: in vivo
[2] = in vivo
[3] = for faecal blood loss with oral prostaglandin E2: oral PGE2 1 mg three or four times daily given with the drug
[4] = parts of drug dissolving in 10,000 parts of water

SMILES | most frequent adverse effects [1] | absorption [2] | solubility in organic solvents | further results
CCCCC1C(=O)N(c2ccccc2)N(c2ccccc2)C1=O [Phenylbutazone] | nausea, vomiting and epigastric distress | readily absorbed | – | –
O=C(O)c1ccccc1Nc1cccc(C(F)(F)F)c1 [Flufenamic acid] | gastrointestinal disturbances | well absorbed | reasonably soluble in various organic solvents | bound to plasma proteins (plasma proteins): extensively bound to plasma proteins; solubility in water [4]: less than 1 part in 10,000 parts of water
COc1ccc2cc([C@H](C)C(=O)O)ccc2c1 [Naproxen] | gastrointestinal | – | – | –
CC(=O)Oc1ccccc1C(=O)O [Aspirin] | – | – | – | faecal blood loss with oral prostaglandin E2 [3]: reduced to control levels
CC(C(=O)O)c1ccc(-c2ccccc2)c(F)c1 (centres unmarked) [Flurbiprofen] | – | readily absorbed | readily soluble in most organic solvents | bound to plasma proteins (plasma proteins; plasma): approximately 99%
CN1C(C(=O)Nc2ccccn2)=C(O)c2ccccc2S1(=O)=O [Piroxicam] | high incidence of severe gastrointestinal side effects | well absorbed | soluble in some organic solvents | bound to plasma proteins (plasma proteins; plasma): 99%; solubility in water (water): poorly soluble in water
COc1ccc2c(c1)c(CC(=O)O)c(C)n2C(=O)c1ccc(Cl)cc1 [Indomethacin] | gastrointestinal problems, headache and dizziness | readily absorbed | more soluble in simple organic solvents | increase in faecal blood loss ([3]; compared with controls): ~3 fold; faecal blood loss with oral prostaglandin E2 [3]: reduced to control levels; parts of water in which drug is soluble (parts of water per part of drug): more than 10,000 parts of water
CC(C(=O)O)c1cccc(C(=O)c2ccccc2)c1 (centres unmarked) [Ketoprofen] | gastrointestinal | – | – | –
CC(C)Cc1ccc(C(C)C(=O)O)cc1 (centres unmarked) [Ibuprofen, ibuprofen] | gastrointestinal | well absorbed | fairly soluble in simple organic solvents | solubility in water [4]: less than 1 part in 10,000 parts of water; solubility in water (water): poorly soluble in water
O=C(O)Cc1ccccc1Nc1c(Cl)cccc1Cl [Diclofenac] | – | fairly well absorbed | soluble in some organic solvents | Gastrointestinal disturbances / side effects reported ([1]; % of cases): about 7%; solubility in water (water): poorly soluble in water
CC1=C(CC(=O)O)c2cc(F)ccc2/C1=C\c1ccc([S+](C)[O-])cc1 (centres unmarked) [Sulindac] | gastrointestinal, headache and dizziness | incompletely absorbed from the gastrointestinal tract | – | –
